# Assays:
# Format in all cases: binding
# HsAFP1 [1] = biological target: T1, HsAFP1 (Heuchera sanguinea, UniProt P0C8Y5); experiment: DSC of lipid vesicles (lipid phase transition); conditions: PC/PG/PA 75/15/10 vesicles, 0.5 mM; 40 uM HsAFP1; HEPES pH 7, low salt
# T1 construct: mature plant defensin, recombinantly produced in Pichia pastoris and purified
# HsAFP1 [2] = biological target: T1, HsAFP1; experiment: rELISA, immobilised lipid; conditions: 12.5 uM HsAFP1; pH 7.4; 37 C
# HsAFP1 [3] = biological target: T2, HsAFP1 (Heuchera sanguinea, UniProt P0C8Y5, H32A/R52A); experiment: rELISA, immobilised lipid; conditions: 12.5 uM peptide; PBS-based blocking buffer pH 7.4; 37 C
# T2 construct: mature plant defensin, recombinantly produced in Pichia pastoris and purified
# T2 sequence (P0C8Y5 whole entry H32A/R52A): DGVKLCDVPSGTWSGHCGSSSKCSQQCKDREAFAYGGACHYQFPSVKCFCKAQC
# T1 sequence (P0C8Y5 whole entry): as the sequence (P0C8Y5 whole entry H32A/R52A) above, with A32H, A52R counted along it
compound,measurement,setting,value
CCCCCCCCCCCCCC(=O)OC[C@H](COP(=O)(O)O)OC(=O)CCCCCCCCCCCCC [dimyristoylphosphatidic acid],DSC of lipid vesicles (lipid phase transition),HsAFP1 [1],HsAFP1 specifically interacted with vesicles containing PA
methyl-PA,% reduction of binding vs PA,HsAFP1 [2],> 75%
phosphatidic acid,% reduction of binding vs native HsAFP1,HsAFP1 [3],77%
